Values quoted from earlier work as cited in patent US6103262A, “Modified-release metronidazole compositions and methods for making and using same” (priority 1994, dated 2000).

Assays:
[1] = test system: trichomoniasis or bacterial vaginosis
[2] = test system: Trichomonas vaginalis, Entamoeba histolytica, Helicobacter species, anaerobic bacteria
[3] = in vivo

Structure (SMILES): Cc1ncc([N+](=O)[O-])n1CCO [metronidazole, 1-(2-hydroxyethyl)-2-methyl-5-nitroimidazole]
- side effects ([1]; in vivo): significant and undesirable side effects such as nausea
- occurrence and severity of side effects, lower dosages ([1]; in vivo, po): significantly reduce the occurrence and severity of side effects
- clinical efficacy ([1]; single large dose (~2 grams) as a bolus): clinically effective
- killing of microorganisms [2]: effective for killing
- absorption by the bloodstream [3]: rapidly absorbed
- clearance from the bloodstream [3]: rapidly cleared
- aqueous solubility (in words): aqueous soluble
